What was measured:
human FXR = biological target: T1, human FXR (Homo sapiens, UniProt Q96RI1); assay: transient human FXR/Gal4-luciferase reporter assay (HLE GAL-FXR); conditions: FXR EC50 (nM), Gal4-hFXR fusion reporter, HEK293 cells; Table 1
T1 sequence (Q96RI1 262-486 limits assumed): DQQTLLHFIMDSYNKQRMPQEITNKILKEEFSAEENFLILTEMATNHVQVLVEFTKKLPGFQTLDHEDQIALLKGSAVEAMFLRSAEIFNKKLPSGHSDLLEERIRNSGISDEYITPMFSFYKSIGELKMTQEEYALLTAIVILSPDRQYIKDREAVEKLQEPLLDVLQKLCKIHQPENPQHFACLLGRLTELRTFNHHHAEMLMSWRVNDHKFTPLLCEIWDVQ
Procedure: A Gal4-hFXR fusion construct reporter system was used as the primary assay to characterize compound activity. A construct including 5 copies of the Gal4 promoter response element upstream of a firefly luciferase reporter cDNA was stably expressed in HEK293 cells. This reporter cell line was maintained in Dulbecco's Modified Eagle's medium (DMEM; Gibco) supplemented with 1% penicillin-streptomycin (P/S) solution, 500 μg/mL Zeocin and 10% charcoal/dextran-treated fetal bovine serum (cs-FBS) at 37° C. in a humidified 5% CO2 atmosphere. Another plasmid was constructed in which the human cytomegalovirus promoter in the pcDNA3.1 vector directs the expression of the cDNA encoding a fusion protein comprised of the DNA binding domain from the Gal4 transcription factor fused to the ligand binding domain from human FXR.
For compound testing, 100 nL of the compounds (serial dilutions in DMSO) are dispensed with an Echo acoustic dispenser (Labcyte) into the wells of a Corning/Costar clear bottom 384-well white plate. The transfected cells are harvested, counted, and diluted such that 10-25,000 cells in 25 μL are plated into each well of the 384-well compound assay plate. The compound-treated cells are incubated overnight at 37° C. in a humidified 5% CO2 atmosphere. The next morning 25 μL of Steady-Glo (Promega) are added to each well of the plate, the mixture is incubated for 15 min. with shaking, and luminescence is measured on an Envision (Perkin Elmer) plate reader.

Fgf15 = assay: Acute mouse in vivo assay (PK/PD): Fgf15 gene expression in ileum; conditions: for Fgf15 (fold change@ 6 h relative to Vehicle): Mouse PD
Procedure: (§1) Acute Mouse In Vivo Assay:
(§2) Male, C57BL6/NTac mice, weighing 25-28 g, are purchased from Taconic Labs (Hudson, N.Y.) and maintained on Teklad Global 18% Protein Rodent Diet (Harlan Laboratories). After 1 week acclimation, mice are sorted into groups based upon body weight. Mice are administered a single oral dose of vehicle or experimental compound. Systemic compound exposure is evaluated in plasma derived from blood collected via the submandibular vein at 1 hour post-dose, and at study termination (6 h). At study termination, the animals are euthanized and rapidly dissected. The medial lobe of the liver is divided, with one half being homogenized and analyzed for compound exposure, and the other half saved in RNAlater (Thermo-Fisher Scientific). The ileum is also dissected and preserved in RNAlater. Tissue samples in RNAlater are homogenized with MP Biomedicals' beads. RNA is extracted using the MagMax-96 Total RNA Isolation kit (Thermo-Fisher Scientific) according to the manufacturer's protocol. RNA Concentration is determined with the Nano-Drop 8000 Spectrophotometer (Thermo Fisher). […] Mouse genes analyzed include Nr0b2 (which encodes the small heterodimer partner, SHP), Abcb11 (which encodes the bile salt excretion pump, BSEP), Cyp7a1, & Cyp8b1 in liver, and Fgf15, Fabp6 (which encodes ileal bile acid binding protein, I-BABP), Slc51a (which encodes organic solute transporter alpha subunit, OSTA), and Slc51 b (which encodes organic solute transporter beta subunit, OSTB) in the ileum. The statistical significant changes in FGF15 gene expression are expressed as fold increase and CYP7A1 expression as a percent reduction relative to vehicle control. […]
(§3) Male, C57BL6/NTac mice, weighing 25-28 g, are purchased from Taconic Labs (Hudson, N.Y.) and maintained on Teklad Global 18% Protein Rodent Diet (Harlan Laboratories). […] Systemic compound exposure is evaluated in plasma derived from blood collected via the submandibular vein at 1 hour post-dose, and at study termination (6 h). […] RNA Concentration is determined with the Nano-Drop 8000 Spectrophotometer (Thermo Fisher). […]

Cyp7a1 = assay: Acute mouse in vivo assay (PK/PD): Cyp7a1 gene expression in liver; conditions: for Cyp7a1 (fold change@ 6 h relative to Vehicle): Mouse PD
Procedure: as §1, §2, §3

SMILES | EC50 (human FXR) [nM] | Fgf15 (fold change@ 6 h relative to Vehicle) (Fgf15; dose 30 mg/kg) | Cyp7a1 (fold change@ 6 h relative to Vehicle) (Cyp7a1; dose 30 mg/kg) | Mouse in vivo FgF15 (Fgf15; 30 mg/kg, @ 6 h, single oral dose, fold increase relative to vehicle control) [x] | Mouse in vivo Cyp7a1 (Cyp7a1; 30 mg/kg, @ 6 h, single oral dose, percent reduction relative to vehicle control) [%] | Fgf15 (fold change@ 6 h relative to Vehicle) (Fgf15; dose 3 mg/kg) | Cyp7a1 (fold change@ 6 h relative to Vehicle) (Cyp7a1; dose 3 mg/kg)
O=C(O)c1ncc(N2CCC(/C=C/c3c(-c4c(Cl)cccc4Cl)noc3C3CC3)CC2)cn1 [Example 27] | 2330 | 2.8 | 0.10 |  |  |  | 
O=C(O)c1cc(F)c2nc(N3CCC(/C=C/c4c(-c5c(Cl)cccc5Cl)noc4C4CC4)CC3)sc2c1 [Example 14] |  |  |  | 10 | −96 |  | 
O=C(O)c1cc2ccc(N3CCC(/C=C/c4c(-c5c(Cl)cncc5Cl)noc4C4CC4)CC3)cc2cn1 [Example 101] | 47 |  |  |  |  | 21 | 0.06
